Reference: patent US20140213648A1, “METHODS OF INCREASING EPA BLOOD LEVELS” (priority 2012, published 2014)

Assay: 12-week placebo-controlled study: red blood cell fatty acid concentrations, ratios and proportions (GC/FID)
Format: in vivo, human
Conditions: for AA red blood cell concentration, change from baseline (LS mean (SE)) / AA red blood cell concentration, end-of-treatment (mean) / DHA red blood cell concentration, change from baseline (LS mean (SE)) / DHA red blood cell concentration, end-of-treatment (mean) / Linoleic red blood cell concentration, change from baseline (LS mean (SE)) / Linoleic red blood cell concentration, end-of-treatment (mean) / Oleic red blood cell concentration, change from baseline (LS mean (SE)) / Oleic red blood cell concentration, end-of-treatment (mean) / Palmitic red blood cell concentration, change from baseline (LS mean (SE)) / Palmitic red blood cell concentration, end-of-treatment (mean) / Proportion of monounsaturated fatty acids to total fatty acids in RBCs, change from baseline (LS mean (SE)) / Proportion of monounsaturated fatty acids to total fatty acids in RBCs, end-of-treatment (mean (SD)) / Proportion of saturated fatty acids to total fatty acids in RBCs, change from baseline (LS mean (SE)) / Proportion of saturated fatty acids to total fatty acids in RBCs, end-of-treatment (mean (SD)) / Proportion of total omega-3 fatty acids to total fatty acids in RBCs, change from baseline (LS mean (SE)) / Proportion of total omega-3 fatty acids to total fatty acids in RBCs, end-of-treatment (mean (SD)) / Proportion of total omega-6 fatty acids to total fatty acids in RBCs, change from baseline (LS mean (SE)) / Proportion of total omega-6 fatty acids to total fatty acids in RBCs, end-of-treatment (mean (SD)) / Ratio of AA/EPA in red blood cells, change from baseline (LS mean (SE)) / Ratio of AA/EPA in red blood cells, end-of-treatment (mean) / Ratio of n-3/n-6 FA in red blood cells, change from baseline (LS mean (SE)) / Ratio of n-3/n-6 FA in red blood cells, end-of-treatment (mean) / Stearic red blood cell concentration, change from baseline (LS mean (SE)) / Stearic red blood cell concentration, end-of-treatment (mean): week 12
Experimental: A multi-center, placebo-controlled randomized, double-blind, 12-week study with an open-label extension is performed to evaluate the efficacy and safety of AMR101 in patients with fasting triglyceride levels ≧500 mg/dL. The primary objective of the study is to determine the efficacy of AMR101 2 g daily and 4 g daily, compared to placebo, in lowering fasting TG levels in patients with fasting TG levels ≧500 mg/dL and ≦1500 mg/dL (≧5.65 mmol/L and ≦16.94 mmol/L).
Eligible patients will be randomly assigned at Visit 4 (Week 0) to receive orally AMR101 2 g daily, AMR101 4 g daily, or placebo for the 12-week double-blind treatment period. AMR101 is provided in 1 g liquid-filled, oblong, gelatin capsules. The matching placebo capsule is filled with light liquid paraffin and contains 0 g of AMR101. During the double-blind treatment period, patients will take 2 capsules (AMR101 or matching placebo) in the morning and 2 in the evening for a total of 4 capsules per day. Patients in the AMR101 2 g/day treatment group will receive 1 AMR101 1 g capsule and 1 matching placebo capsule in the morning and in the evening. Patients in the AMR101 4 g/day treatment group will receive 2 AMR101 1 g capsules in the morning and evening.
Lipids were extracted from plasma and RBC suspensions and converted into fatty acid methyl esters for analysis using a standard validated gas chromatography/flame ionization detection method. Fatty acid parameters were compared between EPA treatment groups and placebo using an ANCOVA model with treatment, gender, type of statin therapy, and presence of diabetes as factors, and the baseline parameter value as a covariate. LSMs, SEs, and 2-tailed 95% confidence intervals for each treatment group and for each comparison were determined.

[1] = 2 g/day vs placebo, week 12, P <0.0001
[2] = 4 g/day vs placebo, week 12, P <0.0001

SMILES: CC/C=C\C/C=C\C/C=C\C/C=C\C/C=C\CCCC(=O)OCC [IPE, Icosapent ethyl]
- Dose dependence of EPA concentration in RBCs (in words) (2 g/day or 4 g/day, 12 weeks): significantly increased EPA concentrations in a linear, dose-dependent fashion
- AA red blood cell concentration, mean placebo-adjusted percent change from baseline (2 g/day vs placebo, week 12, P 0.0008): −8.0%
- Proportion of total omega-6 fatty acids to total fatty acids in RBCs, mean placebo-adjusted percent change from baseline (2 g/day vs placebo, week 12, P 0.0014): −13.2%
- Proportion of monounsaturated fatty acids to total fatty acids in RBCs, mean placebo-adjusted percent change from baseline (2 g/day vs placebo, week 12, P 0.0435): −3.1%
- Proportion of total omega-3 fatty acids to total fatty acids in RBCs, mean placebo-adjusted percent change from baseline (2 g/day vs placebo, week 12, P 0.1183): 23.8%
- Linoleic red blood cell concentration, mean placebo-adjusted percent change from baseline (2 g/day vs placebo, week 12, P 0.1278): −4.7%
- Proportion of saturated fatty acids to total fatty acids in RBCs, mean placebo-adjusted percent change from baseline (2 g/day vs placebo, week 12, P 0.3278): 1.1%
- Oleic red blood cell concentration, mean placebo-adjusted percent change from baseline (2 g/day vs placebo, week 12, P 0.3736): −2.1%
- DHA red blood cell concentration, mean placebo-adjusted percent change from baseline (2 g/day vs placebo, week 12, P 0.5859): −1.8%
- Stearic red blood cell concentration, mean placebo-adjusted percent change from baseline (2 g/day vs placebo, week 12, P 0.5886): 1.1%
- Palmitic red blood cell concentration, mean placebo-adjusted percent change from baseline (2 g/day vs placebo, week 12, P 0.9465): −0.1%
- Ratio of AA/EPA in red blood cells, mean placebo-adjusted percent change from baseline [1]: −91.1%
- Ratio of n-3/n-6 FA in red blood cells, mean placebo-adjusted percent change from baseline [1]: 65.5%
- AA red blood cell concentration, change from baseline (LS mean (SE)) (2 g/day): −20.9 (3.2)
- AA red blood cell concentration, end-of-treatment (mean) (2 g/day): 160.3
- DHA red blood cell concentration, change from baseline (LS mean (SE)) (2 g/day): −7.3 (1.5)
- DHA red blood cell concentration, end-of-treatment (mean) (2 g/day): 51.5
- Linoleic red blood cell concentration, change from baseline (LS mean (SE)) (2 g/day): −10.7 (4.7)
- Linoleic red blood cell concentration, end-of-treatment (mean) (2 g/day): 169.6
- Oleic red blood cell concentration, change from baseline (LS mean (SE)) (2 g/day): −1.4 (4.1)
- Oleic red blood cell concentration, end-of-treatment (mean) (2 g/day): 213.0
- Palmitic red blood cell concentration, change from baseline (LS mean (SE)) (2 g/day): −2.9 (5.4)
- Palmitic red blood cell concentration, end-of-treatment (mean) (2 g/day): 341.7
- Proportion of monounsaturated fatty acids to total fatty acids in RBCs, change from baseline (LS mean (SE)) (2 g/day): −0.1 (0.3) mol %
- Proportion of monounsaturated fatty acids to total fatty acids in RBCs, end-of-treatment (mean (SD)) (2 g/day): 20.0 (1.9) mol %
- Proportion of saturated fatty acids to total fatty acids in RBCs, change from baseline (LS mean (SE)) (2 g/day): 0.3 (0.4) mol %
- Proportion of saturated fatty acids to total fatty acids in RBCs, end-of-treatment (mean (SD)) (2 g/day): 44.4 (3.0) mol %
- Proportion of total omega-3 fatty acids to total fatty acids in RBCs, change from baseline (LS mean (SE)) (2 g/day): 2.6 (0.3) mol %
- Proportion of total omega-3 fatty acids to total fatty acids in RBCs, end-of-treatment (mean (SD)) (2 g/day): 8.7 (2.2) mol %
- Proportion of total omega-6 fatty acids to total fatty acids in RBCs, change from baseline (LS mean (SE)) (2 g/day): −2.9 (0.4) mol %
- Proportion of total omega-6 fatty acids to total fatty acids in RBCs, end-of-treatment (mean (SD)) (2 g/day): 27.0 (3.3) mol %
- Ratio of AA/EPA in red blood cells, change from baseline (LS mean (SE)) (2 g/day): −17.7 (0.9)
- Ratio of AA/EPA in red blood cells, end-of-treatment (mean) (2 g/day): 5.2
- Ratio of n-3/n-6 FA in red blood cells, change from baseline (LS mean (SE)) (2 g/day): 0.12 (0.010)
- Ratio of n-3/n-6 FA in red blood cells, end-of-treatment (mean) (2 g/day): 0.33
- Stearic red blood cell concentration, change from baseline (LS mean (SE)) (2 g/day): −4.7 (2.9)
- Stearic red blood cell concentration, end-of-treatment (mean) (2 g/day): 179.0
- Proportion of total omega-3 fatty acids to total fatty acids in RBCs, mean placebo-adjusted percent change from baseline (4 g/day vs placebo, week 12, P 0.0008): 53.4%
- Proportion of monounsaturated fatty acids to total fatty acids in RBCs, mean placebo-adjusted percent change from baseline (4 g/day vs placebo, week 12, P 0.0154): −3.9%
- Proportion of saturated fatty acids to total fatty acids in RBCs, mean placebo-adjusted percent change from baseline (4 g/day vs placebo, week 12, P 0.1145): 1.9%
- DHA red blood cell concentration, mean placebo-adjusted percent change from baseline (4 g/day vs placebo, week 12, P 0.1216): −5.2%
- Oleic red blood cell concentration, mean placebo-adjusted percent change from baseline (4 g/day vs placebo, week 12, P 0.1325): −3.7%
- Palmitic red blood cell concentration, mean placebo-adjusted percent change from baseline (4 g/day vs placebo, week 12, P 0.7427): −0.7%
- Stearic red blood cell concentration, mean placebo-adjusted percent change from baseline (4 g/day vs placebo, week 12, P 0.7565): −0.7%
- AA red blood cell concentration, mean placebo-adjusted percent change from baseline [2]: −15.7%
- Linoleic red blood cell concentration, mean placebo-adjusted percent change from baseline [2]: −13.0%
- Proportion of total omega-6 fatty acids to total fatty acids in RBCs, mean placebo-adjusted percent change from baseline [2]: −17.3%
- Ratio of AA/EPA in red blood cells, mean placebo-adjusted percent change from baseline [2]: −102%
- Ratio of n-3/n-6 FA in red blood cells, mean placebo-adjusted percent change from baseline [2]: 106.9%
- AA red blood cell concentration, change from baseline (LS mean (SE)) (4 g/day): −36.2 (3.4)
- AA red blood cell concentration, end-of-treatment (mean) (4 g/day): 148.8
- DHA red blood cell concentration, change from baseline (LS mean (SE)) (4 g/day): −9.7 (1.6)
- DHA red blood cell concentration, end-of-treatment (mean) (4 g/day): 51.7
- Linoleic red blood cell concentration, change from baseline (LS mean (SE)) (4 g/day): −25.0 (4.9)
- Linoleic red blood cell concentration, end-of-treatment (mean) (4 g/day): 164.7
- Oleic red blood cell concentration, change from baseline (LS mean (SE)) (4 g/day): −5.6 (4.1)
- Oleic red blood cell concentration, end-of-treatment (mean) (4 g/day): 208.3
- Palmitic red blood cell concentration, change from baseline (LS mean (SE)) (4 g/day): −5.8 (5.7)
- Palmitic red blood cell concentration, end-of-treatment (mean) (4 g/day): 340.6
- Proportion of monounsaturated fatty acids to total fatty acids in RBCs, change from baseline (LS mean (SE)) (4 g/day): −0.2 (0.3) mol %
- Proportion of monounsaturated fatty acids to total fatty acids in RBCs, end-of-treatment (mean (SD)) (4 g/day): 19.5 (1.9) mol %
- Proportion of saturated fatty acids to total fatty acids in RBCs, change from baseline (LS mean (SE)) (4 g/day): 0.6 (0.4) mol %
- Proportion of saturated fatty acids to total fatty acids in RBCs, end-of-treatment (mean (SD)) (4 g/day): 44.5 (2.5) mol %
- Proportion of total omega-3 fatty acids to total fatty acids in RBCs, change from baseline (LS mean (SE)) (4 g/day): 4.1 (0.3) mol %
- Proportion of total omega-3 fatty acids to total fatty acids in RBCs, end-of-treatment (mean (SD)) (4 g/day): 10.4 (2.3) mol %
- Proportion of total omega-6 fatty acids to total fatty acids in RBCs, change from baseline (LS mean (SE)) (4 g/day): −4.7 (0.5) mol %
- Proportion of total omega-6 fatty acids to total fatty acids in RBCs, end-of-treatment (mean (SD)) (4 g/day): 25.5 (2.9) mol %
- Ratio of AA/EPA in red blood cells, change from baseline (LS mean (SE)) (4 g/day): −19.9 (1.0)
- Ratio of AA/EPA in red blood cells, end-of-treatment (mean) (4 g/day): 3.1
- Ratio of n-3/n-6 FA in red blood cells, change from baseline (LS mean (SE)) (4 g/day): 0.20 (0.011)
- Ratio of n-3/n-6 FA in red blood cells, end-of-treatment (mean) (4 g/day): 0.42
- Stearic red blood cell concentration, change from baseline (LS mean (SE)) (4 g/day): −8.2 (3.1)
- Stearic red blood cell concentration, end-of-treatment (mean) (4 g/day): 178.1
